Reference: patent US20120171126A1, “NOVEL [3,2-c] HETEROARYL STEROIDS AS GLUCOCORTICOID RECEPTOR AGONISTS COMPOSITIONS AND USES THEREOF” (priority 2009, published 2012)
Where two headings read alike, the source gives them in different places.

Experiments:
IL-8 = assay: Glucocorticoid transrepression assay, IL-8 inhibition (TR); assay type: cell-based; conditions: Homo sapiens
Outline: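 Human lung epithelial NCI-H292 cells at 75-90% confluence were pretreated with steroid or antagonist for 1 h at 37 °C. TNFα was then added at 10 ng/ml final and cells were incubated overnight, with 10 μM dexamethasone as the maximum-inhibition control. Secreted IL-6 and IL-8 were measured in the medium by MSD multi-spot immunoassay.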

[1] = tested on: human glucocorticoid response element coupled with a luciferase reporter gene; assay: GRE-transactivation assay (HeLa-GRE luciferase, TA); assay type: cell-based
Description: HeLa cells were stably transfected with a human glucocorticoid response element coupled with a luciferase reporter gene. Cells were plated in 96 well Packard View Plates (black sides/ clear bottom) at 20 K cells/0.2 ml complete medium. Plates were incubated overnight at 37°/5% CO2. Medium was aspirated and replaced with 150 μl medium containing 5% charcoal-treated FBS and cells incubated overnight again. Test compounds were prepared in 5% charcoal-treated FBS medium. Medium was aspirated from plates and replaced with 100 μl of test compounds or controls. Plates were returned to incubator for exactly 24 hours. To measure induced luciferase, 100 μl of Steady-Glo luciferase assay substrate (Promega) was added to each well. Plates were sealed and mixed on a plate shaker for 5 minutes. Plate bottom opaque seals were added and the plates were allowed to stand for 60 minutes. Luminescence was measured on a Top-Count instrument (Perkin-Elmer).

IL-6 = assay: Glucocorticoid transrepression assay, IL-6 inhibition (TR); assay type: cell-based; conditions: Homo sapiens; Table 4; NCl-H292 cells, TNFα 10 ng/ml
Description: Human Lung epithelial cell line NCl-H292 cells were dissociated from stock flask using 0.05% trypsin/0.53 mM EDTA. Cells were suspended in complete medium and counted. Cells were plated in 96-well flat-bottom plates at 20K cells /well in 0.2 ml/well. Plates were incubated for 24-48 hours until cells were between 75-90% confluent. Medium was aspirated and replaced with medium containing various concentrations of steroids or antagonists. After 1 hour incubation at 37°, TNFα (10 ng/ml final concentration in 0.2 ml) was added and the cells incubated overnight. Control wells with and without TNF were included on each plate, as well as wells with TNF in addition to a maximum (10 μM) concentration of dexamethasone. The cell culture medium was sampled and IL-6 and IL-8 cytokine production was measured using the MSD Multi-Spot immunoassay.

[2] = symptoms associated with chronic nasal congestion; cited from earlier work
[3] = Table 1, NCl-H292 cells, TNFα 10 ng/ml
[4] = Table 1, NCl-H292 cells, TNFα 10 ng/ml, read-out: IL-8 inhibition (TR) Emax % inhibition
[5] = HeLa cells, 24 hours, luciferase, read-out: EMAX value, GRE-transactivation assay

Compound | IC50 (IL-8; [3]) [nM] | Emax (IL-8; [4]) [%] | Emax [1, 5] [%] | further results
CC12Cc3cnn(-c4ccc(F)cc4)c3C=C1CCC1C2[C@@H](O)CC2(C)C1CC[C@]2(O)C(=O)CSc1nc2ccccc2s1 (stereo partly shown) [Compound 1] | 0.06 to 20 | > 80 | 71 | 
CC12Cc3cnn(-c4ccc(F)cc4)c3C=C1CCC1C2[C@@H](O)CC2(C)C1CC[C@]2(O)C(=O)Cn1cc(-c2ccccc2)cn1 (stereo partly shown) [Compound 1] |  |  | 69 | 
C[C@]12Cc3cnn(-c4ccc(F)cc4)c3C=C1CCC1C2[C@@H](O)C[C@@]2(C)C1CC[C@]2(OC(=O)c1ccco1)C(=O)SCc1ccc(-c2ccccn2)cc1 (stereo partly shown) [Compound 1] |  |  |  | Emax (IL-6): > 80%; IC50 (IL-6): 0.06 to 20 nM
C[C@]12Cc3cnn(-c4ccc(F)cc4)c3C=C1CCC1C2[C@@H](O)C[C@@]2(C)C1CC[C@]2(OC(=O)c1ccco1)C(=O)SCc1ccc2ccccc2n1 (stereo partly shown) [Compound 2] |  |  |  | Emax (IL-6): > 80%; IC50 (IL-6): 0.06 to 20 nM
C[C@]12Cc3cnn(-c4ccc(F)cc4)c3C=C1CCC1C2[C@@H](O)C[C@@]2(C)C1CC[C@]2(OC(=O)c1ccco1)C(=O)SCc1nc2ccccc2o1 (stereo partly shown) [Compound 3] |  |  |  | Emax (IL-6): > 80%; IC50 (IL-6): 0.06 to 20 nM
C[C@]12Cc3cnoc3C=C1CCC1C2[C@@H](O)C[C@@]2(C)C1CC[C@]2(O)C(=O)Nc1nc2cccnc2s1 (stereo partly shown) [Compound 4-1] |  |  |  | Emax (IL-8; text value for compound 4-1, only a % value printed, read-out: IL-8 inhibition(TR) IC50/Emax(nM, % inhibition)): 23%; Emax ([1]; text value for compound 4-1, only a % value printed, read-out: H Hela-GRE luciferase(TA) IC50/Emax(nM, % inhibition)): 0%
C[C@]12Cc3cnn(-c4ccc(F)cc4)c3C=C1CCC1C2[C@@H](O)C[C@@]2(C)C1CC[C@]2(OC(=O)c1ccco1)C(=O)SCc1cccc(N2CCCC2)n1 (stereo partly shown) [Compound 4] |  |  |  | Emax (IL-6): > 80%; IC50 (IL-6): 0.06 to 20 nM
CC12Cc3cnn(CCC#N)c3C=C1CCC1C2[C@@H](O)CC2(C)C1CC[C@]2(O)C(=O)CSc1ccccn1 (stereo partly shown) [Compound 60] | 66 to 400 | < 60 | 15 | 
CC12Cc3cnn(C4CCOCC4)c3C=C1CCC1C2[C@@H](O)CC2(C)C1CC[C@]2(O)C(=O)CSc1nc2cccnc2s1 (stereo partly shown) [Compound 71] | 66 to 400 | > 80 | 85 | 
CC12Cc3cnn(C4CCOCC4)c3C=C1CCC1C2[C@@H](O)CC2(C)C1CC[C@]2(O)C(=O)CSc1ccc2ccccc2n1 (stereo partly shown) [Compound 74] | 66 to 400 | 70 to 80 | 56 | 
Cc1ccnc(SCC(=O)[C@@]2(O)CCC3C4CCC5=Cc6c(cnn6C6CCCCC6)CC5(C)C4[C@@H](O)CC32C)n1 (stereo partly shown) [Compound 131] | 0.06 to 20 | > 80 | 83 | 
Oc1cccc(Nc2ncc(F)c(Nc3cccc(O)c3)n2)c1 [Compound R112] |  |  |  | absolute difference over placebo [2]: 9%; improvement from baseline measurements (prior to drug initiation) [2]: up to 38%; relative improvement over placebo [2]: greater than 20%
C[C@@H]1C[C@H]2[C@@H]3CCC4=CC(=O)C=C[C@]4(C)[C@@]3(F)[C@@H](O)C[C@]2(C)[C@@]1(O)C(=O)CO [dexamethasone, reference compound] |  |  | 100 | 
CCC(=O)O[C@]1(C(=O)SCF)[C@H](C)C[C@H]2[C@@H]3C[C@H](F)C4=CC(=O)C=C[C@]4(C)[C@@]3(F)[C@@H](O)C[C@@]21C [fluticasone propionate, reference compound] |  |  | 99 | 
